Key:
[1] = biological target: T1, GST-tagged Tnks-1 (1023-1327 aa) (Homo sapiens, UniProt O95271); assay: TNKS1 activity ELISA (autoparsylation); type: biochemical; details: activity ELISA, 1 hour at 30° C; read-out: IC50 TNKS1 ELISA
T1 construct: GST-tagged Tnks-1 (1023-1327 aa, prepared in-house); made in house
Method: Description of the TNKS1 and TNKS2 ELISA Assay
Biochemical Activity Testing of TNKS 1 and 2: Activity ELISA (Autoparsylation Assay)
For analysis of autoparsylation activity of TNKS 1 and 2 an activity ELISA is performed: In the first step GST tagged TNKS is captured on a Glutathione coated plate. Then the activity assay with biotinylated NAD is performed in the absence/presence of the compounds. During the enzymatic reaction GST tagged TNKS transfers biotinylated ADP-ribose to itself from biotinylated NAD as co-substrate. For the detection streptavidin-HRP conjugate is added that binds to the biotinylated TNKS and is thereby captured to the plates. The amount of biotinylated resp. autoparsylated TNKS is detected with a luminescence substrate for HRP. The level of the luminescence signal correlates directly with the amount of autoparsylated TNKS and therefore with activity of TNKS.
The activity ELISA is performed in 384 well Glutathione coated microtiter plates (Express capture Glutathione coated plate, Biocat, Heidelberg, Germany). The plates are pre-equilibrated with PBS. Then the plates are incubated with 50 μl 20 ng/well GST-tagged Tnks-1 (1023-1327 aa, prepared in-house), respectively GST-tagged Tnks-2 (873-1166 aa, prepared in-house) in assay buffer (50 mM HEPES, 4 mM Mg-chloride, 0.05% Pluronic F-68, 2 mM DTT, pH 7.7) overnight at 4° C. The plates are washed 3 times with PBS-Tween-20. The wells are blocked by incubation at room temperature for 20 minutes with 50 μl blocking buffer (PBS, 0.05% Tween-20, 0.5% BSA). Afterwards the plates are washed 3 times with PBS-Tween-20. The enzymatic reaction is performed in 50 μl reaction solution (50 mM HEPES, 4 mM Mg-chloride, 0.05% Pluronic F-68, 1.4 mM DTT, 0.5% DMSO, pH 7.7) with 10 μM bio-NAD (Biolog, Life science Inst., Bremen, Germany) as co-substrate in the absence or presence of the test compound (10 dilution concentrations) for 1 hour at 30° C. The reaction is stopped by 3 times washing with PBS-Tween-20. For the detection 50 μl of 20 ng/μl Streptavidin, HRP conjugate (MoBiTec, Göttingen, Germany) in PBS/0.05% Tween-20/0.01% BSA are added and the plates are incubated for 30 minutes at room temperature. After three times washing with PBS-Tween-20 50 μl of SuperSignal ELISA Femto Maximum sensitivity substrate solution (ThermoFisherScientific (Pierce), Bonn, Germany) are added. Following a 1 minute incubation at room temperature luminescence signals are measured with an Envision multimode reader (Perkin Elmer LAS Germany GmbH) at 700 nm. The full value used is the inhibitor-free reaction. The pharmacological zero value used is XAV-939 (Tocris) in a final concentration of 5 μM. The inhibitory values (IC50) are determined using either the program Symyx Assay Explorer® or Condosseo® from GeneData.

[2] = biological target: T2, GST-tagged Tankyrase-1 (1023-1327 aa) (Homo sapiens, UniProt O95271); assay: Tankyrase 1 autoparsylation HTRF enzyme assay; type: biochemical; details: HTRF autoparsylation, 90 min at 30° C; read-out: IC50 TNKS1 enzyme assay
T2 construct: GST-tagged Tankyrase-1 (1023-1327 aa)
T2 sequence (O95271 1023-1327): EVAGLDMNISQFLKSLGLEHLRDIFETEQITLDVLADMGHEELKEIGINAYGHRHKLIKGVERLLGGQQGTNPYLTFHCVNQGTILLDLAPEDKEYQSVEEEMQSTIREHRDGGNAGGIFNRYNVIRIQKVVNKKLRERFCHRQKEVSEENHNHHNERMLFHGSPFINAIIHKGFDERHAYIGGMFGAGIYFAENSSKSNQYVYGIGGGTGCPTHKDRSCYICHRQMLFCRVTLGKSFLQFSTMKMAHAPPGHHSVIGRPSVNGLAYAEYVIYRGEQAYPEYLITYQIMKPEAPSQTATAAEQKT
Method: Biochemical Activity Testing of Tankyrase 1 and 2: Autoparsylation Assay
The autoparsylation assay is run in two steps: the enzymatic reaction in which GST-tagged Tankyrase-1, resp Tankyrase-2 transferred biotinylated ADP-ribose to itself from biotinylated NAD as co-substrate and the detection reaction where a time resolved FRET between cryptate labelled anti-GST bound to the GST tag of the enzyme and Xlent® labelled-streptavidin bound the biotin-parsylation residue is analysed. The autoparsylation activity was detectable directly via the increase in HTRF signal.
The autoparsylation assay is performed as 384-well HTRF® (Cisbio, Codolet, France) assay format in Greiner low volume nb 384-well microtiter plates and is used for high throughput screen. 250 nM GST-tagged Tankyrase-1 (1023-1327 aa), respectively about 250 nM GST-tagged Tankyrase-2 (873-1166 aa) and 5 μM bio-NAD (Biolog, Life science Inst., Bremen, Germany) as co-substrate are incubated in a total volume of 5 μl (50 mM HEPES, 4 mM Mg-chloride, 0.05% Pluronic F-68, 1.4 mM DTT, 0.5% DMSO, pH 7.7) in the absence or presence of the test compound (10 dilution concentrations) for 90 min at 30° C. The reaction is stopped by the addition of 1 μl 50 mM EDTA solution. 2 μl of the detection solution (1.6 μM SA-Xlent® (Cisbio, Codolet, France), 7.4 nM Anti-GST-K® (Eu-labelled anti-GST, Cisbio, Codolet, France) in 50 mM HEPES, 800 mM KF, 0.1° A. BSA, 20 mM EDTA, 0.1% CHAPS, pH 7.0) are added. After 1 h incubation at room temperature the HTRF is measured with an Envision multimode reader (Perkin Elmer LAS Germany GmbH) at excitation wavelength 340 nm (laser mode) and emission wavelengths 615 nm and 665 nm. The ratio of the emission signals is determined. The full value used is the inhibitor-free reaction. The pharmacological zero value used is XAV-939 (Tocris) in a final concentration of 5 μM. The inhibitory values (IC50) are determined using either the program Symyx Assay Explorer® or Condosseo® from GeneData.

T1 sequence (O95271 1023-1327): as above

SMILES	IC50 [1]	IC50 [2]
O=C(Cc1ccccc1)Nc1nncc2ccccc12 [Compound A1, 2-phenyl-N-phthalazin-1-yl-acetamide]	< 0.3 µM	< 0.3 µM
COc1cccc(CC(=O)Nc2nncc3ccccc23)c1 [Compound A2, 2-(3-methoxyphenyl)-N-phthalazin-1-yl-acetamide]	0.3 to 3 µM	0.3 to 3 µM
COc1ccc(CC(=O)Nc2nncc3ccccc23)cc1 [Compound A3, 2-(4-methoxyphenyl)-N-phthalazin-1-yl-acetamide]	< 0.3 µM	< 0.3 µM
CCOc1ccc(CC(=O)Nc2nncc3ccccc23)cc1 [Compound A4, 2-(4-ethoxyphenyl)-N-phthalazin-1-yl-acetamide]	< 0.3 µM	< 0.3 µM
O=C(CCC1CCCC1)Nc1nncc2ccccc12 [Compound A15, 3-cyclopentyl-N-phthalazin-1-yl-propionamide]	< 0.3 µM	< 0.3 µM
O=C(CCc1ccccc1Cl)Nc1nncc2ccccc12 [Compound A16, 3-(2-chloro-phenyl)-N-phthalazin-1-yl-propionamide]	< 0.3 µM	< 0.3 µM
Cc1cccc2cnnc(NC(=O)Cc3ccccc3)c12 [Compound A18, N-(8-methyl-phthalazin-1-yl)-2-phenyl-acetamide]	< 0.3 µM	0.3 to 3 µM
COc1ccc(CC(=O)Nc2nncc3cccc(C)c23)cc1 [Compound A20, 2-(4-methoxy-phenyl)-N-(8-methyl-phthalazin-1-yl)-acetamide]	< 0.3 µM	0.3 to 3 µM

— patent US9751842B2, “Phthalazine derivatives” (Merck Patent GmbH, priority 2013, dated 2017)
